# Data as given in patent US20260251625A1, “METHOD FOR DETERMINING THE DEGREE OF OXIDATIVE DEGRADATION OF POLYSORBATE 20 IN AQUEOUS FORMULATIONS” (Boehringer Ingelheim International GmbH, priority 2021, published 2026).
# Experiment: AAPH-induced oxidative stress of aqueous polysorbate 20 solution, PEG-6-laurate oxidation marker by LC-MS P6L
# Assay type: physicochemical
# Details: 1.5 mM AAPH
# Method: Specifically, oxidative stress is applied to the aqueous polysorbate 20 solution using 1.5 mM 2,2′-azobis-2-methyl-propanimidamide, dihydrochloride (AAPH). The details of the sample preparation are explained in the experimental section under chapter “1.1 Materials”, point “c) Sample preparation of artificially stressed polysorbate 20”.
# 1.5 mM 2,2′-azobis-2-methyl-propanimidamide, dihydrochloride (AAPH) was added to a 0.040 mg/ml aqueous polysorbate 20 solution. The polysorbate 20 solution was stressed for 40 h at 50° C.
# 1.5 mM 2,2′-azobis-2-methyl-propanimidamide, dihydrochloride (AAPH) was added to a 0.040 mg/ml aqueous polysorbate 20 solution. The polysorbate 20 solution was stressed for 35 h at 50° C. After 0, 1, 3, 8, 12, 24 and 35 h samples were taken from the solution and immediately frozen at −20° C. in order to stop the degradation at each time point. […]
# The separated species were then ionized with heated electrospray ionization (HESI) source (Ion Max Ion source with HESI probe, Thermo Fisher Scientific). […] Ions generated were detected in the mass spectrometer (LTQ, Thermo Fisher Scientific). […] PEG-6-laurate was evaluated by generating extracted ion chromatograms (EIC's) out of the full scan data to get peak areas of selected compounds using LCquan™ (Software for quantitative analysis of liquid chromatography).
substance,measurement,setting,value
polyethylene glycol-6-laurate,"increase of peak eluting at about 18.4 min, AAPH-stressed vs unstressed sample","m/z about 227 amu, 40 h at 50° C.",approximately 3.4 fold
same,relative peak area of polyethylene glycol-6-laurate over stress time,"reference T0, 50° C., 0-35 h",increase up to the sampling time point T4 (12 h)
